Source: ChEMBL document CHEMBL5143740, “Discovery of Novel Phosphoinositide-3-Kinase α Inhibitors with High Selectivity, Excellent Bioavailability, and Long-Acting Efficacy for Gastric Cancer” (J Med Chem, 2022)
Active and inactive are the calls of the source. No cut-off for these calls is given here.

Legend:
[1] = target: Phosphatidylinositol 4,5-bisphosphate 3-kinase catalytic subunit alpha isoform (Homo sapiens, UniProt P42336); experiment: Inhibition of PI3Kalpha (unknown origin) using PIP2 as substrate in presence of ATP measured after 1 hr by ADP-Glo assay
Chain of Phosphatidylinositol 4,5-bisphosphate 3-kinase catalytic subunit alpha isoform (P42336 whole entry, canonical isoform): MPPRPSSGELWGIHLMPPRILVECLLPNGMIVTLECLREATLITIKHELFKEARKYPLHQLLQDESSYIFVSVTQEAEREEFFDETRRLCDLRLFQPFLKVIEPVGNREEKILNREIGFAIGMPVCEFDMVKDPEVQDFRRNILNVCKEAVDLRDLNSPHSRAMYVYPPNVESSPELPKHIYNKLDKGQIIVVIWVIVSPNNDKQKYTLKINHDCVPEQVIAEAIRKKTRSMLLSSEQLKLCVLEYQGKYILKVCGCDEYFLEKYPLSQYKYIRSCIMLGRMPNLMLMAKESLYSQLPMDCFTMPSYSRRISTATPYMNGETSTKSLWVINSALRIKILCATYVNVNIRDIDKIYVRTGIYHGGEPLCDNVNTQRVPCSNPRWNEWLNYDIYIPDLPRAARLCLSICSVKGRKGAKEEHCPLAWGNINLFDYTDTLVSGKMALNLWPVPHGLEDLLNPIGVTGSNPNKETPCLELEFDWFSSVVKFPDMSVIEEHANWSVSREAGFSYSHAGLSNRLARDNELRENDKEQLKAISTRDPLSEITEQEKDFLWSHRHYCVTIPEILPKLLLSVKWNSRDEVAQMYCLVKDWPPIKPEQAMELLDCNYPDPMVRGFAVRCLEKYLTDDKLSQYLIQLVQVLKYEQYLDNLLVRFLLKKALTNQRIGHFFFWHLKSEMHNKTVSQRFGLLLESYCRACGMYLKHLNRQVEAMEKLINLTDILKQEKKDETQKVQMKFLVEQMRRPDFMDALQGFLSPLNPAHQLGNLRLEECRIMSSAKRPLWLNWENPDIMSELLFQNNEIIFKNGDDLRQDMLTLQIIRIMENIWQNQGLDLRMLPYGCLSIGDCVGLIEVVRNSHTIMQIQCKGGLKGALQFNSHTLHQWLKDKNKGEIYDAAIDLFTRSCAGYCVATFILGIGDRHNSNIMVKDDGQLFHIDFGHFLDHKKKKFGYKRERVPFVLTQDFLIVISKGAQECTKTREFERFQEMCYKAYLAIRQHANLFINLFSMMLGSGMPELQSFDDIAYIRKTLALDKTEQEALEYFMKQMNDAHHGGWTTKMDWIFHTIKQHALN

MGC-803 [2] = experiment: Antitumor activity against human MGC-803 cells xenografted in BALB/c nude mouse assessed as reduction in tumor volume at 10 mg/kg, ip administered every day for 3 weeks by vernier caliper method; format: functional, organism-based
MGC-803 [3] = experiment: Antitumor activity against human MGC-803 cells xenografted in BALB/c nude mouse assessed as tumor growth inhibition at 30 mg/kg, po administered every day for 3 weeks; format: functional; settings: MGC-803, 504 h, read-out: TGI
MCF7 = experiment: Antiproliferative activity against human MCF7 cells assessed as inhibition of cell growth incubated for 72 hrs by CCK8 assay; format: functional, cell-based; settings: MCF7, 72 h
MGC-803 [4] = experiment: Antiproliferative activity against human MGC-803 cells assessed as inhibition of cell growth incubated for 72 hrs by CCK8 assay; format: functional, cell-based; settings: MGC-803, 72 h
Homo sapiens [5] = species on record: Homo sapiens; experiment: Selectivity index, ratio of IC50 for inhibition of PI3Kgamma (unknown origin) to IC50 for inhibition of PI3Kalpha (unknown origin)
Homo sapiens [6] = species on record: Homo sapiens; experiment: Selectivity index, ratio of IC50 for inhibition of PI3Kdelta (unknown origin) to IC50 for inhibition of PI3Kalpha (unknown origin)
[7] = target: Phosphatidylinositol 4,5-bisphosphate 3-kinase catalytic subunit beta isoform (Homo sapiens, UniProt P42338); experiment: Inhibition of PI3Kbeta (unknown origin) in presence of [33P]-ATP incubated for 2 hrs by hotspot kinase assay
Chain of Phosphatidylinositol 4,5-bisphosphate 3-kinase catalytic subunit beta isoform (P42338 whole entry, canonical isoform): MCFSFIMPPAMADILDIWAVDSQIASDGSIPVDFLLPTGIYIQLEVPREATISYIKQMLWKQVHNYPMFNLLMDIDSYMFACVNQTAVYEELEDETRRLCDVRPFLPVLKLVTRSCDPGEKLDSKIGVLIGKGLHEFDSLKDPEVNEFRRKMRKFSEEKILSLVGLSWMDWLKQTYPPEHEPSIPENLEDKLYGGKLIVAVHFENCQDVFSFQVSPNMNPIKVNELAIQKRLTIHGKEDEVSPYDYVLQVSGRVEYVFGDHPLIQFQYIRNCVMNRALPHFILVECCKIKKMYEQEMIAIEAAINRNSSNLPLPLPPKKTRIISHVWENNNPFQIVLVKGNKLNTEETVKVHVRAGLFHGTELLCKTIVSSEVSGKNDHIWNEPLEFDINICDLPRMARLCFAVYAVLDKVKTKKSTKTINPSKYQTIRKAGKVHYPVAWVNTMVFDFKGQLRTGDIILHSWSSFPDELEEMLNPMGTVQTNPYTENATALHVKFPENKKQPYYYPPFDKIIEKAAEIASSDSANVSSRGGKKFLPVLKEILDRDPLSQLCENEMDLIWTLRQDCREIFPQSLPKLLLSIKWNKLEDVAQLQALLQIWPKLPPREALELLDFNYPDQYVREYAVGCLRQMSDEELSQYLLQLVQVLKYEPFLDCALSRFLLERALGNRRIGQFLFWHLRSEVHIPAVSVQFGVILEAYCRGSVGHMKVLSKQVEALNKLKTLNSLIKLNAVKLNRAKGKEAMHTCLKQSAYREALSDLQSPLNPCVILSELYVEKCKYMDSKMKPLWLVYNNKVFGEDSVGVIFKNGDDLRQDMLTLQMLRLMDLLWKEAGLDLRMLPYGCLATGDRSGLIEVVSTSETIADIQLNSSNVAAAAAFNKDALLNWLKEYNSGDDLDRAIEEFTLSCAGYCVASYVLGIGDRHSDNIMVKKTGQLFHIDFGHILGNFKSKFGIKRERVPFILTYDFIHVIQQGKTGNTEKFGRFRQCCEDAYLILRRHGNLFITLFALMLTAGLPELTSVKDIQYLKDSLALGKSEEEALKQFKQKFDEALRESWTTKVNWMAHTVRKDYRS

[8] = target: T1, Phosphatidylinositol 4,5-bisphosphate 3-kinase catalytic subunit delta isoform (Homo sapiens, UniProt O00329); experiment: Inhibition of PI3Kdelta (unknown origin) in presence of [33P]-ATP incubated for 2 hrs by hotspot kinase assay
T1 sequence (O00329 whole entry): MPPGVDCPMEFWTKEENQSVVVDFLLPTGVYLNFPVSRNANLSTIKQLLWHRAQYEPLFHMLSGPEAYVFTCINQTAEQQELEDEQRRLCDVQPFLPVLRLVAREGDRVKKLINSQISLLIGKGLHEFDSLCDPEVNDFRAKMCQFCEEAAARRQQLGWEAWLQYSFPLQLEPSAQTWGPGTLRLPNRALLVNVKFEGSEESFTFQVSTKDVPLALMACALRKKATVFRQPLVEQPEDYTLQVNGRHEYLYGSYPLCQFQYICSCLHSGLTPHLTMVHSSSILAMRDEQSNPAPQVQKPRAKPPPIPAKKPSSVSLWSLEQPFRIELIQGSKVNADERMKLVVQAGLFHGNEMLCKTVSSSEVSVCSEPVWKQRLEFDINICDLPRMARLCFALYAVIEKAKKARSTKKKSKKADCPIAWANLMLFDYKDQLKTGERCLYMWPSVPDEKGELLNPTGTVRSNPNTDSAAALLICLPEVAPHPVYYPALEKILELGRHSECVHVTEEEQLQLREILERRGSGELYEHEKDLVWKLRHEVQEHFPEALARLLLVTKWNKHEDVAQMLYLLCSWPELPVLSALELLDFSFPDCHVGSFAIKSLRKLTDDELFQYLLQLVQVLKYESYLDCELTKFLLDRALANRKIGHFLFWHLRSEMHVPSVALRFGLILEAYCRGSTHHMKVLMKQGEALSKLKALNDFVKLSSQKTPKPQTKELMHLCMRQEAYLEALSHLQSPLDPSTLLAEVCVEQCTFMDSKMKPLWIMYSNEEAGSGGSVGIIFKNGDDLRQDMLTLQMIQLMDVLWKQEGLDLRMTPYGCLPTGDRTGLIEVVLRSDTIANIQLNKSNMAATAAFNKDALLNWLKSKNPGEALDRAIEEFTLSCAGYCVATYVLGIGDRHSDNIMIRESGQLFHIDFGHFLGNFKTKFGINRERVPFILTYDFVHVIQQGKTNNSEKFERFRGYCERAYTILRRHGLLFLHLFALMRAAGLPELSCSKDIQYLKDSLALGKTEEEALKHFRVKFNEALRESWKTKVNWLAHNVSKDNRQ

Homo sapiens [9] = species on record: Homo sapiens; experiment: Selectivity index, ratio of IC50 for inhibition of PI3Kbeta (unknown origin) to IC50 for inhibition of PI3Kalpha (unknown origin)
[10] = target: Phosphatidylinositol 4,5-bisphosphate 3-kinase catalytic subunit gamma isoform (Homo sapiens, UniProt P48736)
Chain of Phosphatidylinositol 4,5-bisphosphate 3-kinase catalytic subunit gamma isoform (P48736 whole entry, canonical isoform): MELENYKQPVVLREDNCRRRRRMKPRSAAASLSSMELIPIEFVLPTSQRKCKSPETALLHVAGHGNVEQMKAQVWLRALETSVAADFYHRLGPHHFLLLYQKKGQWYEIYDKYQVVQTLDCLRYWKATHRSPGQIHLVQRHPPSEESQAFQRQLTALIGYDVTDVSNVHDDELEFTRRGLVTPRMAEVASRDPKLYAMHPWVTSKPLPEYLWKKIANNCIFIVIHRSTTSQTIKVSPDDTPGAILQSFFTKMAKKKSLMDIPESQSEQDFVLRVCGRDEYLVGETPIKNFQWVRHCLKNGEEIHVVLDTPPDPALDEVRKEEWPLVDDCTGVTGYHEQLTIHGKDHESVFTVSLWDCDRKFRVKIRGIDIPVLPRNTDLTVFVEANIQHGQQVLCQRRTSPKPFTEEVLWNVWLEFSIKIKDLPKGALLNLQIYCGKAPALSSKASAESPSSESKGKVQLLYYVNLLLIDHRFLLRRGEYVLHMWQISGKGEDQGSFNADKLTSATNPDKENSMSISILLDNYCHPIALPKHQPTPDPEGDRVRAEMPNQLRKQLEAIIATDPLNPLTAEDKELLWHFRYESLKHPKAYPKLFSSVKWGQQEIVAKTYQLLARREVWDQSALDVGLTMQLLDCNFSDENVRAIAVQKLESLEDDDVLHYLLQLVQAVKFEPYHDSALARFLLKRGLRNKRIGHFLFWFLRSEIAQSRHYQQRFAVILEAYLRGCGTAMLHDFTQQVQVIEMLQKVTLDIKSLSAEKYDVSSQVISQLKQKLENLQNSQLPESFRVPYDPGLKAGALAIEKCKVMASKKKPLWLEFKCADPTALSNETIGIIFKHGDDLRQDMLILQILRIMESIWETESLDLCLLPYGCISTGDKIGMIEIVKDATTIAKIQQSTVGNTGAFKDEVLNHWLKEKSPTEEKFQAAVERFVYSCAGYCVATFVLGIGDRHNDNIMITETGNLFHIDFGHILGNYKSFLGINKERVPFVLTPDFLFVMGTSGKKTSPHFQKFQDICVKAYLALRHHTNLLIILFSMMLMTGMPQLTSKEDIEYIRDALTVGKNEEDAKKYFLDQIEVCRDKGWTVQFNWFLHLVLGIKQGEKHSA

IC50 [1] [nM] | Structure (SMILES) | further results
> 10000 | Nc1nc2ccc(-c3nc(Nc4ccc5c(c4)OCO5)nc(Nc4ccc5c(c4)OCO5)n3)cc2o1 | 
 | CC(=O)O[C@H]1C(=O)[C@@]2(C)[C@H]([C@H](OC(=O)c3ccccc3)[C@]3(O)C[C@H](OC(=O)[C@H](O)[C@@H](NC(=O)c4ccccc4)c4ccccc4)C(C)=C1C3(C)C)[C@]1(OC(C)=O)CO[C@@H]1C[C@@H]2O [PACLITAXEL] | Activity (MGC-803 [2]): Active; inhibition in vivo at 30 mg/kg (MGC-803 [3]): 60.3%
7450 | O=C(Nc1nc2cc(-c3nc(N4CCOCC4)nc(N4CCOCC4)n3)ccc2o1)C1CCCCC1 | 
99 | COC(=O)c1ccc(CNc2nc3cc(-c4nc(N5CCOCC5)nc(N5CCOCC5)n4)ccc3o2)cc1 | 
> 10000 | CN(C)c1nc2ccc(-c3nc(Nc4ccc(C(F)(F)F)cc4)nc(N4CCOCC4)n3)cc2s1 | 
> 10000 | CC(=O)N1CCN(c2nc(-c3ccc4nc(N)oc4c3)nc(N3CCN(C(C)=O)CC3)n2)CC1 | 
47 | NC(=O)c1ccc(CNc2nc3cc(-c4nc(N5CCOCC5)nc(N5CCOCC5)n4)ccc3o2)cc1 | 
5360 | Nc1nc2ccc(-c3nc(N4CCOCC4)nc(N4CCC(C(F)(F)F)CC4)n3)cc2s1 | 
> 10000 | CN(C)c1nc2ccc(-c3nc(N4CCOCC4)nc(N4CCOCC4)n3)cc2s1 | 
703 | Nc1nc2cc(-c3nc(NC4CCC(C(F)(F)F)CC4)nc(N4CCOCC4)n3)ccc2o1 (stereo not drawn) | 
1050 | CC(C)N1CCN(c2nc(-c3ccc4oc(N)nc4c3)nc(N3CCOCC3)n2)CC1 | 
2820 | c1cc2oc(NC3CCCC3)nc2cc1-c1nc(N2CCOCC2)nc(N2CCOCC2)n1 | 
1410 | Nc1nc2cc(-c3nc(Nc4cccc(C(F)(F)F)c4)nc(N4CCOCC4)n3)ccc2o1 | 
23 | CC(=O)N1CCN(c2nc(-c3ccc4oc(N)nc4c3)nc(N3CCOCC3)n2)CC1 | 
2220 | CN(C)c1nc2cc(-c3nc(N4CCOCC4)nc(N4CCOCC4)n3)ccc2o1 | 
598 | CCN1CCN(c2nc(-c3ccc4oc(N)nc4c3)nc(N3CCOCC3)n2)CC1 | 
> 10000 | CC(=O)N1CCN(c2nc(-c3ccc4nc(NCc5ccc(C(=O)O)cc5)oc4c3)nc(N3CCN(C(C)=O)CC3)n2)CC1 | 
259 | CC(C)(C)OC(=O)N1CCN(c2nc(-c3ccc4oc(N)nc4c3)nc(N3CCOCC3)n2)CC1 | 
> 10000 | COC(=O)c1ccc(CNc2nc3ccc(-c4nc(N5CCN(C(C)=O)CC5)nc(N5CCN(C(C)=O)CC5)n4)cc3o2)cc1 | 
300 | FC(F)(F)c1ccc(CNc2nc3cc(-c4nc(N5CCOCC5)nc(N5CCOCC5)n4)ccc3o2)cc1 | 

IC50 [1] [nM] | Structure (SMILES) | further results
569 | Nc1nc2cc(-c3nc(N4CCNCC4)nc(N4CCOCC4)n3)ccc2o1 | 
66 | CC(=O)Nc1nc2cc(-c3nc(N4CCOCC4)nc(N4CCOCC4)n3)ccc2o1 | 
497 | CC(=O)N1CCN(c2nc(-c3ccc4nc(N)sc4c3)nc(N3CCOCC3)n2)CC1 | 
432 | CC(C)(C)OC(=O)N1CCN(c2nc(-c3ccc4nc(N)sc4c3)nc(N3CCOCC3)n2)CC1 | 
> 10000 | CN(C)c1nc2ccc(-c3nc(N4CCOCC4)nc(N4CCN(S(C)(=O)=O)CC4)n3)cc2s1 | 
86 | N#Cc1ccc(CNc2nc3cc(-c4nc(N5CCOCC5)nc(N5CCOCC5)n4)ccc3o2)cc1 | 
4240 | Nc1nc2cc(-c3nc(NC4CCOCC4)nc(N4CCOCC4)n3)ccc2o1 | 
63 | c1ccc(CNc2nc3cc(-c4nc(N5CCOCC5)nc(N5CCOCC5)n4)ccc3o2)cc1 | 
81 | COc1ccc(CNc2nc3cc(-c4nc(N5CCOCC5)nc(N5CCOCC5)n4)ccc3o2)cc1 | 
> 10000 | CN(C)c1nc2ccc(-c3nc(N4CCNCC4)nc(N4CCOCC4)n3)cc2s1 | 
72 | O=[N+]([O-])c1ccc(CNc2nc3cc(-c4nc(N5CCOCC5)nc(N5CCOCC5)n4)ccc3o2)cc1 | 
> 10000 | CS(=O)(=O)N1CCN(c2nc(-c3ccc4nc(N)oc4c3)nc(N3CCN(S(C)(=O)=O)CC3)n2)CC1 | 
32 | CS(=O)(=O)N1CCN(c2nc(-c3ccc4oc(N)nc4c3)nc(N3CCOCC3)n2)CC1 | 
 | Cc1nc(NC(=O)N2CCC[C@H]2C(N)=O)sc1-c1ccnc(C(C)(C)C(F)(F)F)c1 [ALPELISIB] | IC50 (MCF7): 430 nM; IC50 (MGC-803 [4]): 430 nM
6 | O=C(O)c1ccc(CNc2nc3ccc(-c4nc(N5CCOCC5)nc(N5CCOCC5)n4)cc3o2)cc1 | Ratio IC50 (Homo sapiens [5]): 581; Ratio IC50 (Homo sapiens [6]): 8.5; IC50 [7]: 100 nM; IC50 [8]: 51 nM; Ratio IC50 (Homo sapiens [9]): 16; IC50 [10]: 3490 nM
8750 | CC(=O)Nc1nc2ccc(-c3nc(N4CCOCC4)nc(N4CCOCC4)n3)cc2s1 | 
2770 | CC(C)Nc1nc2cc(-c3nc(N4CCOCC4)nc(N4CCOCC4)n3)ccc2o1 | 
357 | Nc1nc2ccc(-c3nc(N4CCOCC4)nc(N4CCOCC4)n3)cc2s1 | 
397 | CC(C)C(=O)Nc1nc2cc(-c3nc(N4CCOCC4)nc(N4CCOCC4)n3)ccc2o1 | 
311 | CC(C)c1ccc(CNc2nc3cc(-c4nc(N5CCOCC5)nc(N5CCOCC5)n4)ccc3o2)cc1 | 
